The source of these data is patent US12655124B2, “Heterocyclic compounds as modulators of stimulator of interferon genes (STING)” (RYVU THERAPEUTICS S.A., priority 2019, dated 2026).

Structures can show the parent of a compound that is named as a salt.

human STING, sequence (Q86WV6 whole entry H232R): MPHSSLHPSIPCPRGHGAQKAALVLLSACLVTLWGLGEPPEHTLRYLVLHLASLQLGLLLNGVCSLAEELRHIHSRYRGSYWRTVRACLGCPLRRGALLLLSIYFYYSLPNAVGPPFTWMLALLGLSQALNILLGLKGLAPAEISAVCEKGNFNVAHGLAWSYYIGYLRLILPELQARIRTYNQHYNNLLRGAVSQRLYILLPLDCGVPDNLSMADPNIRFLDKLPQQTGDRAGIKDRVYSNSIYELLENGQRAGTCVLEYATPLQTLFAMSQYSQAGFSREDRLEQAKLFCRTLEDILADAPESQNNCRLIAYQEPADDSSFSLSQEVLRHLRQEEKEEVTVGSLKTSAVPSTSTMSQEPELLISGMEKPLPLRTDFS

This experiment has as its target human STING (Homo sapiens, UniProt Q86WV6). The experiment is described as follows: Fluorescence Thermal Shift assay (hSTING FTS binding assay).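 Note: STING preincubated with compound for 20 min in HEPES NaCl buffer pH 7.5.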 The conditions noted are these: ΔTm, STING 0.1 mg/mL, SyproOrange, 25 to 99° C. Here is the method:
Fluorescence Thermal Shift Assay Compounds of the present invention were tested for binding to human STING in Fluorescence Thermal Shift assay. […] Final STING concentration was 0.1 mg/mL. Thermal unfolding was performed in Real-Time PCR QuantStudio 6 Flex System (Applied Biosystems), from 25 to 99° C., with continuous ramp mode and ramp rate 0.033° C./s. The data were analyzed using Protein Thermal Shift Software (ThermoFisher).
Regarding `Cc1ccc(N2CCC[C@H](N(Cc3ccnc(C)c3)Cc3cn(C4CC4)c4cc(N5CC[C@@H](N)C(F)(F)C5)c(F)cc4c3=O)C2)cn1.Cl` (single isomer, unassigned) [Example 56], the “hSTING FTS binding assay (ΔT ° C.)” value is “+++ (ΔTm≥20° C.)”. Under `Cc1cc(CN(Cc2cn(C)c3ccccc3c2=O)[C@H]2CCCN(c3cccc(N)c3)C2)ccn1.Cl` [Example 1, 3-({[(3S)-1-(3-Aminophenyl)piperidin-3-yl][(2-methylpyridin-4-yl)methyl]amino}methyl)-1-methyl-1,4-dihydroquinolin-4-one Hydrochloride] stands “+ (ΔTm≤10° C.)”. To `Cc1cc(CN(Cc2cn(C)c3ccccc3c2=O)[C@H]2CCCN(c3ccc(N)nc3)C2)ccn1` [Example 2, 3-({[(3S)-1-(6-Aminopyridin-3-yl)piperidin-3-yl][(2-methylpyridin-4-yl)methyl]amino}methyl)-1-methyl-1,4-dihydroquinolin-4-one] belongs “+++ (ΔTm≥20° C.)”; to `Cc1cc(CN(Cc2cn(C)c3ccccc3c2=O)[C@H]2CCCN(c3ccc(CN)nc3)C2)ccn1.Cl` [Example 3, 3-({[(3S)-1-[6-(Aminomethyl)pyridin-3-yl]piperidin-3-yl][(2-methylpyridin-4-yl)methyl]amino}methyl)-1-methyl-1,4-dihydroquinolin-4-one Hydrochloride], “+ (ΔTm≤10° C.)”; to `Cc1ccc(N2CCC[C@H](N(Cc3ccnc(N)c3)Cc3cn(C4CC4)c4cc(F)c(F)cc4c3=O)C2)cn1` [Example 5, 3-({[(2-Aminopyridin-4-yl)methyl][(3S)-1-(6-methylpyridin-3-yl)piperidin-3-yl]amino}methyl)-1-cyclopropyl-6,7-difluoro-1,4-dihydroquinolin-4-one Hydrochloride], “+++ (ΔTm≥20° C.)”. Under `Cc1ccc(N2CCC[C@H](N(Cc3ccnc(C)c3)Cc3cn(C)c4cc(N5CCC(N)CC5)ccc4c3=O)C2)cn1.Cl` [Example 6, 7-(4-Aminopiperidin-1-yl)-1-methyl-3-({[(3S)-1-(6-methylpyridin-3-yl)piperidin-3-yl][(2-methylpyridin-4-yl)methyl]amino}methyl)-1,4-dihydroquinolin-4-one Hydrochloride] stands “++ (10<ΔTm<20° C.)”. On to `Cc1ccc(N2CCC[C@H](N(Cc3ccnc(C)c3)Cc3cn(C4CC4)c4cc(N)c(F)cc4c3=O)C2)cn1` [Example 7, 7-Amino-1-cyclopropyl-6-fluoro-3-({[(3S)-1-(6-methylpyridin-3-yl)piperidin-3-yl][(2-methylpyridin-4-yl)methyl]amino}methyl)-1,4-dihydroquinolin-4-one], for which the “hSTING FTS binding assay (ΔT ° C.)” value is listed as “+++ (ΔTm≥20° C.)”.

`Cc1ccc(N2CCC[C@H](N(Cc3ccnc(C)c3)Cc3cn(C4CC4)c4cc(NCCN)c(F)cc4c3=O)C2)cn1` [Example 8, 7-[(2-Aminoethyl)amino]-1-cyclopropyl-6-fluoro-3-({[(3S)-1-(6-methylpyridin-3-yl)piperidin-3-yl][(2-methylpyridin-4-yl)methyl]amino}methyl)-1,4-dihydroquinolin-4-one]: the “hSTING FTS binding assay (ΔT ° C.)” value is listed as “+++ (ΔTm≥20° C.)”. In the case of `Cc1ccc(N2CCC[C@H](N(Cc3ccnc(C)c3)Cc3cn(C4CC4)c4cc(NCCN(C)C)c(F)cc4c3=O)C2)cn1` [Example 9, 1-Cyclopropyl-7-{[2-(dimethylamino)ethyl]amino}-6-fluoro-3-({[(3S)-1-(6-methylpyridin-3-yl)piperidin-3-yl][(2-methylpyridin-4-yl)methyl]amino}methyl)-1,4-dihydroquinolin-4-one], the “hSTING FTS binding assay (ΔT ° C.)” value is on record as “+++ (ΔTm≥20° C.)”. On to `Cc1ccc(N2CCC[C@H](N(Cc3ccnc(C)c3)Cc3cn(C4CC4)c4cc(OCCN)c(F)cc4c3=O)C2)cn1` [Example 10, 7-(2-Aminoethoxy)-1-cyclopropyl-6-fluoro-3-({[(3S)-1-(6-methylpyridin-3-yl)piperidin-3-yl][(2-methylpyridin-4-yl)methyl]amino}methyl)-1,4-dihydroquinolin-4-one], for which the “hSTING FTS binding assay (ΔT ° C.)” value is listed as “+++ (ΔTm≥20° C.)”. Under `CNCCOc1cc2c(cc1F)c(=O)c(CN(Cc1ccnc(C)c1)[C@H]1CCCN(c3ccc(C)nc3)C1)cn2C1CC1.Cl` [Example 11, 1-Cyclopropyl-6-fluoro-7-[2-(methylamino)ethoxy]-3-({[(3S)-1-(6-methylpyridin-3-yl)piperidin-3-yl][(2-methylpyridin-4-yl)methyl]amino}methyl)-1,4-dihydroquinolin-4-one Hydrochloride] stands “+++ (ΔTm≥20° C.)”; under `Cc1ccc(N2CCC[C@H](N(Cc3ccnc(C)c3)Cc3cn(C4CC4)c4cc(N5CC[C@@H](N)C5)c(F)cc4c3=O)C2)cn1.Cl` [Example 12, 7-[(3R)-3-Aminopyrrolidin-1-yl]-1-cyclopropyl-6-fluoro-3-({[(3S)-1-(6-methylpyridin-3-yl)piperidin-3-yl][(2-methylpyridin-4-yl)methyl]amino}methyl)-1,4-dihydroquinolin-4-one Hydrochloride], “+++ (ΔTm≥20° C.)”. Under `Cc1ccc(N2CCC[C@H](N(Cc3ccnc(C)c3)Cc3cn(C4CC4)c4cc(N5CC[C@H](N)C5)c(F)cc4c3=O)C2)cn1.Cl` [Example 13, 7-[(3S)-3-Aminopyrrolidin-1-yl]-1-cyclopropyl-6-fluoro-3-({[(3S)-1-(6-methylpyridin-3-yl)piperidin-3-yl][(2-methylpyridin-4-yl)methyl]amino}methyl)-1,4-dihydroquinolin-4-one Hydrochloride] stands “+++ (ΔTm≥20° C.)”; under `Cc1ccc(N2CCC[C@H](N(Cc3ccnc(C)c3)Cc3cn(C4CC4)c4cc(N5CC[C@@H](O)C5)c(F)cc4c3=O)C2)cn1.Cl` [Example 14, 1-Cyclopropyl-6-fluoro-7-[(3R)-3-hydroxypyrrolidin-1-yl]-3-({[(3S)-1-(6-methylpyridin-3-yl)piperidin-3-yl][(2-methylpyridin-4-yl)methyl]amino}methyl)-1,4-dihydroquinolin-4-one Hydrochloride], “+++ (ΔTm≥20° C.)”; under `Cc1ccc(N2CCC[C@H](N(Cc3ccnc(C)c3)Cc3cn(C4CC4)c4cc(N5CC[C@H](CN)C5)c(F)cc4c3=O)C2)cn1.Cl` [Example 15, 7-[(3R)-3-(Aminomethyl)pyrrolidin-1-yl]-1-cyclopropyl-6-fluoro-3-({[(3S)-1-(6-methylpyridin-3-yl)piperidin-3-yl][(2-methylpyridin-4-yl)methyl]amino}methyl)-1,4-dihydroquinolin-4-one Hydrochloride], “+++ (ΔTm≥20° C.)”. On to `Cc1ccc(N2CCC[C@H](N(Cc3ccnc(C)c3)Cc3cn(C4CC4)c4cc(N5CCC[C@H](N)C5)c(F)cc4c3=O)C2)cn1` [Example 16, 7-[(3S)-3-Aminopiperidin-1-yl]-1-cyclopropyl-6-fluoro-3-({[(3S)-1-(6-methylpyridin-3-yl)piperidin-3-yl][(2-methylpyridin-4-yl)methyl]amino}methyl)-1,4-dihydroquinolin-4-one], for which the “hSTING FTS binding assay (ΔT ° C.)” value is “+++ (ΔTm≥20° C.)”.
